{
  "source": "patent US12202835B2",
  "about": "“Substituted aromatic ring-linked dioxinoquinazolines and dioxinoquinolines as kinase inhibitors” (BEIJING SCITECH-MQ PHARMACEUTICALS LIMITED, priority 2018, dated 2025)",
  "test_system": "Ba/F3 LMNA-NTRK1-G595R cells",
  "experiment": "Assay for inhibiting the proliferation of Ba/F3 LMNA-NTRK1-G595R cells (CCK-8)",
  "format": "cell-based",
  "details": "Mus musculus, BaF3",
  "summary_of_the_method": "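Cells seeded in 96-well plates overnight, then exposed 72 h to 9 three-fold dilutions of compound (0.25% DMSO final). Viability by CCK-8 (1-2 h at 37° C., OD 450 nm), survival normalized to untreated and cell-free blanks; IC50 by curve fitting.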",
  "data": [
    {"smiles": "COCCOc1cc2nccc(Oc3ccc(NC(=O)c4cn(C(C)C)c(=O)n(-c5ccc(F)cc5)c4=O)cc3F)c2c2c1OCCO2", "note": "[Example 43, N-(3-fluoro-4-((5-(2-methoxyethoxy)-2,3-dihydro-[1,4]dioxino[2,3-f]quinolin-10-yl)oxy)phenyl)-3-(4-fluorophenyl)-1-isopropyl-2,4-dioxo-1,2,3,4-tetrahydropyrimidine-5-carboxamide]", "values": [
      {"measurement": "IC50", "result": "50 to 200", "unit": "nM"}
    ]},
    {"smiles": "CCn1cc(C(=O)Nc2ccc(Oc3ccnc4cc(OCCOC)c5c(c34)OCCO5)c(F)c2)c(=O)n(-c2ccc(F)cc2)c1=O", "note": "[Example 44, N-(3-fluoro-4-((5-(2-methoxyethoxy)-2,3-dihydro-[1,4]dioxino[2,3-f]quinolin-10-yl)oxy)phenyl)-3-(4-fluorophenyl)-1-ethyl-2,4-dioxo-1,2,3,4-tetrahydropyrimidine-5-carboxamide]", "values": [
      {"measurement": "IC50", "result": "≤ 50", "unit": "nM"}
    ]},
    {"smiles": "COCCn1cc(C(=O)Nc2ccc(Oc3ccnc4cc(OC)c5c(c34)OCCO5)c(F)c2)c(=O)n(-c2ccc(F)cc2)c1=O", "note": "[Example 46, N-(3-fluoro-4-((5-methoxy-2,3-dihydro-[1,4]dioxino[2,3-f]quinolin-10-yl)oxy)phenyl)-3-(4-fluorophenyl)-1-(2-methoxyethyl)-2,4-dioxo-1,2,3,4-tetrahydropyrimidine-5-carboxamide]", "values": [
      {"measurement": "IC50", "result": "50 to 200", "unit": "nM"}
    ]},
    {"smiles": "CN1CCN(CCCOc2cc3nccc(Oc4ccc(NC(=O)c5cn(C)c(=O)n(-c6ccc(F)cc6)c5=O)cc4F)c3c3c2OCCO3)CC1", "note": "[Example 74, N-(3-fluoro-4-((5-(3-(4-methylpiperazin-1-yl)propoxy)-2,3-dihydro-[1,4]dioxino[2,3-f]quinolin-10-yl)oxy)phenyl)-3-(4-fluorophenyl)-1-methyl-2,4-dioxo-1,2,3,4-tetrahydropyrimidine-5-carboxamide]", "values": [
      {"measurement": "IC50", "result": "200 to 1000", "unit": "nM"}
    ]},
    {"smiles": "CC(=O)N1CCN(CCCOc2cc3nccc(Oc4ccc(NC(=O)c5cn(C(C)C)c(=O)n(-c6ccc(F)cc6)c5=O)cc4F)c3c3c2OCCO3)CC1", "note": "[Example 75, N-(3-fluoro-4-((5-(3-(4-acetylpiperazin-1-yl)propoxy)-2,3-dihydro-[1,4]dioxino[2,3-f]quinolin-10-yl)oxy)phenyl)-3-(4-fluorophenyl)-1-isopropyl-2,4-dioxo-1,2,3,4-tetrahydropyrimidine-5-carboxamide]", "values": [
      {"measurement": "IC50", "result": "200 to 1000", "unit": "nM"}
    ]},
    {"smiles": "CC(C)n1cc(C(=O)Nc2ccc(Oc3ccnc4cc(OCCCN5CCCC5)c5c(c34)OCCO5)c(F)c2)c(=O)n(-c2ccc(F)cc2)c1=O", "note": "[Example 77, N-(3-fluoro-4-((5-(3-(pyrrolidin-1-yl)propoxy)-2,3-dihydro-[1,4]dioxino[2,3-f]quinolin-10-yl)oxy)phenyl)-3-(4-fluorophenyl)-1-isopropyl-2,4-dioxo-1,2,3,4-tetrahydropyrimidine-5-carboxamide]", "values": [
      {"measurement": "IC50", "result": "200 to 1000", "unit": "nM"}
    ]},
    {"smiles": "CC(C)n1cc(C(=O)Nc2ccc(Oc3ccnc4cc(OCCO)c5c(c34)OCCO5)c(F)c2)c(=O)n(-c2ccc(F)cc2)c1=O", "note": "[Example 78, N-(3-fluoro-4-((5-(2-hydroxyethoxy)-2,3-dihydro-[1,4]dioxino[2,3-f]quinolin-10-yl)oxy)phenyl)-3-(4-fluorophenyl)-1-isopropyl-2,4-dioxo-1,2,3,4-tetrahydropyrimidine-5-carboxamide]", "values": [
      {"measurement": "IC50", "result": "50 to 200", "unit": "nM"}
    ]},
    {"smiles": "CC(C)n1cc(C(=O)Nc2ccc(Oc3ccnc4cc(OCCCO)c5c(c34)OCCO5)c(F)c2)c(=O)n(-c2ccc(F)cc2)c1=O", "note": "[Example 79, N-(3-fluoro-4-((5-(3-hydroxypropoxy)-2,3-dihydro-[1,4]dioxino[2,3-f]quinolin-10-yl)oxy)phenyl)-3-(4-fluorophenyl)-1-isopropyl-2,4-dioxo-1,2,3,4-tetrahydropyrimidine-5-carboxamide]", "values": [
      {"measurement": "IC50", "result": "50 to 200", "unit": "nM"}
    ]},
    {"smiles": "Cn1cc(C(=O)Nc2ccc(Oc3ccnc4cc(OC5CCOC5)c5c(c34)OCCO5)c(F)c2)c(=O)n(-c2ccc(F)cc2)c1=O", "note": "(stereo not drawn) [Example 90, N-(3-fluoro-4-((5-((tetrahydrofuran-3-yl)oxy)-2,3-dihydro-[1,4]dioxino[2,3-f]quinolin-10-yl)oxy)phenyl)-3-(4-fluorophenyl)-1-methyl-2,4-dioxo-1,2,3,4-tetrahydropyrimidine-5-carboxamide]", "values": [
      {"measurement": "IC50", "result": "50 to 200", "unit": "nM"}
    ]}
  ]
}
